According to patent US8236839B2, “Dual-acting antihypertensive agents” (Theravance, Inc., priority 2007, dated 2012):

Columns and labels:
[1] = target: T1, human AT1 receptor (Homo sapiens, UniProt P30556); experiment: AT1 radioligand binding assay; settings: displacement of [Eu]AngII at 2 nM, membranes of CHO-K1 cells expressing human AT1 receptor; read-out: pKi at the AT1 receptor (converted)
T1 construct: expressed in transfected cells; membrane preparation
T1 sequence (P30556 1-359): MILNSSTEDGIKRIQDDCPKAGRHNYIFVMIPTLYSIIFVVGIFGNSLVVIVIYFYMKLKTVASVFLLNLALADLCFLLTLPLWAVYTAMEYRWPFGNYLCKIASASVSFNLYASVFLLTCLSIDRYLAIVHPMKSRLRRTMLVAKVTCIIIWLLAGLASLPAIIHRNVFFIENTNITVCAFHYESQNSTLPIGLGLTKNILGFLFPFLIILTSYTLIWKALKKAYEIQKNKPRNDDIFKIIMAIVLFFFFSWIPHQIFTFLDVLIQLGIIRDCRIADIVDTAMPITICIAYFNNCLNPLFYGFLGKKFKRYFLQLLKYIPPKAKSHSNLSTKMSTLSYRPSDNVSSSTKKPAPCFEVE
Description: These in vitro assays were used to assess the ability of test compounds to bind to the AT1 and the AT2 receptors.
Chinese hamster ovary (CHO-K1) derived cell lines stably expressing the cloned human AT1 or AT2 receptors, respectively, were grown in HAM's-F12 medium supplemented with 10% fetal bovine serum, 10 μg/ml penicillin/streptomycin, and 500 μg/ml geneticin in a 5% CO2 humidified incubator at 37° C. AT2 receptor expressing cells were grown in the additional presence of 100 nM PD123,319 (AT2 antagonist). When cultures reached 80-95% confluence, the cells were washed thoroughly in PBS and lifted with 5 mM EDTA. Cells were pelleted by centrifugation and snap frozen in MeOH-dry ice and stored at −80° C. until further use.
For membrane preparation, cell pellets were resuspended in lysis buffer (25 mM Tris/HCl pH 7.5 at 4° C., 1 mM EDTA, and one tablet of Complete Protease Inhibitor Cocktail Tablets with 2 mM EDTA per 50 mL buffer (Roche cat. #1697498, Roche Molecular Biochemicals, Indianapolis, Ind.)) and homogenized using a tight-fitting Dounce glass homogenizer (10 strokes) on ice. The homogenate was centrifuged at 1000×g, the supernatant was collected and centrifuged at 20,000×g. […] Protein concentration of the membrane suspension was determined by the method described in Bradford (1976) Anal Biochem. 72:248-54. […]

[2] = target: T2, NEP enzyme (Homo sapiens, UniProt P08473); experiment: In vitro enzyme inhibition assay at NEP; type: biochemical; settings: fluorogenic peptide substrate; human or rat NEP not given; read-out: pIC50 for the NEP enzyme (converted)
T2 construct: purchased R&D Systems, Minneapolis, Minn; 1182-ZN
Description: The inhibitory activities of compounds at human and rat NEP and human ACE were determined using in vitro assays as described below.
Rat NEP was prepared from the kidneys of adult Sprague Dawley rats. Whole kidneys were washed in cold PBS and brought up in ice-cold lysis buffer (1% Triton X-114, 150 mM NaCl, 50 mM Tris pH 7.5; Bordier (1981) J. Biol. Chem. 256:1604-1607) in a ratio of 5 mL of buffer for every gram of kidney. Samples were homogenized using a polytron hand held tissue grinder on ice. Homogenates were centrifuged at 1000×g in a swinging bucket rotor for 5 minutes at 3° C. The pellet was resuspended in 20 mL of ice cold lysis buffer and incubated on ice for 30 minutes. […] Protein concentrations were quantitated using a BCA detection system with BSA as a standard. […]
The assays were performed in 384-well white opaque plates at room temperature using the respective fluorogenic peptides at a concentration of 10 μM in assay buffer (50 mM Tris/HCl at 25° C., 100 mM NaCl, 0.01% Tween-20, 1 μM Zn, 0.025% BSA). […] The rat NEP enzyme preparation was used at a concentration that yielded quantitative proteolysis of 3 μM of Mca-RRL within 20 minutes at room temperature.
Assays were started by adding 25 μL of enzyme to 12.5 μL of test compound at 12 concentrations (10 μM to 20 pM). […] Plates were read on a fluorometer with excitation and emission wavelengths set to 320 nm and 405 nm, respectively. […]

T2 sequence (P08473 52-750 limits assumed): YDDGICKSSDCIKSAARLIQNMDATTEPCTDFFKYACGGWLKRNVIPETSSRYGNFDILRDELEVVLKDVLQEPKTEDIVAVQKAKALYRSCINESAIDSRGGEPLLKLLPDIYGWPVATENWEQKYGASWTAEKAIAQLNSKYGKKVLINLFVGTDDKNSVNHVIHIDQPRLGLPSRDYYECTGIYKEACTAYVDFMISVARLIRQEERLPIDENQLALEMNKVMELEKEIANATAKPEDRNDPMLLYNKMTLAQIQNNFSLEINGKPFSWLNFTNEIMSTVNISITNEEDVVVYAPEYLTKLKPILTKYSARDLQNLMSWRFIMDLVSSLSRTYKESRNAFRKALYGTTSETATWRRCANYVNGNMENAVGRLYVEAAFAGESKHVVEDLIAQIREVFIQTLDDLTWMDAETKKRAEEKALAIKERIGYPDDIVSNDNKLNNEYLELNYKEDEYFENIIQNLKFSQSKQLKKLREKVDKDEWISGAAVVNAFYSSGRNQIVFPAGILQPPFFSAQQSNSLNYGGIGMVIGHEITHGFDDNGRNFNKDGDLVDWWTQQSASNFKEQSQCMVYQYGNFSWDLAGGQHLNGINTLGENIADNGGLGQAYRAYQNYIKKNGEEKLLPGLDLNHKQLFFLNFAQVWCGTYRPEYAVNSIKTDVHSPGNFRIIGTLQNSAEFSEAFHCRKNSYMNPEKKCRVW

Row | Ki [1] [nM] | IC50 [2] [nM] | Structure (SMILES)
1 | < 10 | ≤ 100 | CCCCCN(Cc1ccc(-c2ccccc2-c2nnn[nH]2)cc1)C(=O)N1C[C@@H](NC(=O)C(CC(C)C)C(=O)NO)C[C@H]1C(=O)O (stereo partly drawn) [Example 2, (2S,4S)-4-(2-Hydroxycarbamoyl-4-methylpentanoylamino)-1-{pentyl[2′-(1H-tetrazol-5-yl)biphenyl-4-ylmethyl]carbamoyl}pyrrolidine-2-carboxylic Acid]
2 | < 10 | ≤ 100 | CCCCCN(Cc1ccc(-c2ccccc2-c2nnn[nH]2)cc1)C(=O)[C@H](CC(=O)O)NC(=O)C(CS)CC(C)C (stereo partly drawn) [Example 1, (S)-3-(2-Mercaptomethyl-4-methylpentanoylamino)-N-pentyl-N-[2′1-(1H-tetrazol-5-yl)biphenyl-4-ylmethyl]succinamic Acid]
